Source: PMC6408865 (Pharmacology Research & Perspectives, 2019)
Where two headings read alike, the source gives them in different places.

Legend:
plasma TAG [1] = test: PK/PD model of plasma TAG after Oral Lipid Tolerance Test (corn oil); details: rat OLTT, free plasma concentration, read-out: IC50 (free in vivo IC50, inhibition of exogenous TAG contribution to plasma)
Method: (§1) Full description of the OLTT in the rat has been published previously.17 In brief, 53 male Han‐Wistar rats (∼230 g), previously maintained on a chow diet, were fasted for 14 hours. […] Six remaining animals were kept untreated and served as naive controls.
Biological plausibility combined with stable parameter estimation was used in the evaluation of different potential PK/PD models to help select the optimal one. The key components of the final PK/PD TAG model are described in Figure 1. The introduction of exogenous TAG into the system is represented by a first order process from the lipid depot compartment (assumed to be the gut) to the central compartment (plasma). A lag time to accommodate the time delay from ingestion of the fatty meal to the resulting increase in plasma TAG was needed. In addition, there is an endogenous production and removal of TAG from plasma described with a turnover model controlled by the turnover rate (kin) (production) and the fractional turnover rate (kout) (loss). Turnover model was reparameterized using the relationship of kin to baseline plasma TAG (R0) (R0 = kin/kout) to increase numerical stability.
KaTAG is the absorption rate of exogenous TAG into plasma, VTAG is the volume of distribution of exogenous TAG, and TlagTAG is the time delay for the absorption of TAG from the SMM. […]

plasma TAG [2] = details: human SAD OLTT study, iAUC analysis of plasma TAG vs plasma concentration at start of meal test; read-out: in vivo IC50, previously published; cited from earlier work
[3] = rat plasma; cited from earlier work
[4] = tested on: HuTu 80 (Human gastrointestinal tumor cell line); design: method as in Barlind_2012; details: HuTu 80 cells; ref Barlind_2012; read-out: In vitro potency (IC50) in HuTu 80; cited from earlier work
[5] = mouse plasma; cited from earlier work
[6] = Population PK model of AZD7687 plasma concentrations in SAD and MAD studies (2-compartment, first order absorption); format: in vivo; details: human
Method: Full details of the study protocols have previously been reported by Denison et al14 for Single Ascending Dose study (SAD) and Denison et al16 for the Multiple Ascending Dose Study (MAD). In brief, in the SAD, 80 healthy male subjects were enrolled.
(§2) Full description of all the PK models is provided in supplementary section S1.
Models were implemented using nonlinear mixed effects modeling in Phoenix NLME, version 1.3 (Certara). The analysis was conducted using the first order conditional estimation (FOCE‐ELS) during the sequential and simultaneous analysis (the expectation maximization method (QRPEM) was used for the simultaneous fitting of the human data due to speed and ability to converge).
Inter-individual variability was estimated on CL, V1, V2 and ka parameters according to a log-normal distribution of individual parameters. […] Residual error was characterized with a proportional plus additive error model.

[7] = design: method as in PMID 23116186; details: human plasma; cited from earlier work
[8] = PK model of AZD7687 plasma concentrations during mouse OLTT (1-compartment); format: in vivo
Method: Oral Lipid Tolerance Test in the mouse was carried out in a similar way to rats.
as §2
(§3) As PK data was only collected for 4h post dose, the ability to fit complex PK models was limited. As with the rat, the aim of the PK fitting was to describe the kinetics of the compound during the OLTT instead of a full characterization of the PK properties of the compound. […] Inter-individual variability was estimated on CL and V parameters according to a log-normal distribution of individual parameters. Correlation between Cl and V parameters was allowed. […] Residual error was characterized with a proportional error model.

plasma TAG [9] = test: PK/PD model of plasma TAG after Oral Lipid Tolerance Test (standardized mixed meal)
[10] = tested on: DGAT1 (in liver microsomes); design: method as in Barlind_2012; details: mouse liver microsomes; ref Barlind_2012; read-out: In vitro potency (IC50) against DGAT1; cited from earlier work
[11] = tested on: DGAT1 (in liver microsomes); design: method as in Barlind_2012; details: human liver microsomes; ref Barlind_2012; read-out: In vitro potency (IC50) against DGAT1; cited from earlier work
plasma TAG [12] = tested on: plasma TAG; design: method as in PMID 23116186; details: cited from earlier work
[13] = tested on: DGAT1 (in liver microsomes); design: method as in Barlind_2012; details: rat liver microsomes; ref Barlind_2012; read-out: In vitro potency (IC50) against DGAT1; cited from earlier work
[14] = human; cited from earlier work
[15] = PK model of AZD7687 plasma concentrations during rat OLTT (1-compartment); format: in vivo
Method: as §1, §2
as §3, with “11h” for “4h”, “The” for “As with the rat, the”, “parameters.” for “parameters. Correlation between Cl and V parameters was allowed.”, “proportional plus additive” for “proportional”

plasma TAG [16] = test: PK/PD model of plasma TAG after Oral Lipid Tolerance Test (Intralipos 20%)
[17] = using free concentrations in plasma

Cc1nc(C)c(-c2ccc(C3CCC(CC(=O)O)CC3)cc2)nc1C(N)=O (stereo not drawn) [AZD7687]
IC50 (plasma TAG [1]): 162 nM | IC50 (plasma TAG [2]): 20 nM | free fraction (fu) [3]: 0.03 | IC50 [4]: 10 nM | free fraction (fu) [5]: 0.1 | Cl (tvCL, apparent clearance) [6, 17]: 28.1 L/h | V2 (tvV2, peripheral volume of distribution) [6, 17]: 136.8 L | Tmax ([6]; male, plasma, post dose, oral, read-out: T max in plasma): ≤ 1 h | Vd ([6]; male, oral, using free concentrations in plasma, read-out: V (tvV1, central volume of distribution)): 320 L | free fraction (fu) [7]: 0.055 | V ([8]; Table 1, free concentrations): 13.14 L | CL/F ([8]; male, ICR, oral, supplement, free concentrations in plasma, read-out: tvCl (apparent clearance) (converted)): 36.2 mL/min/kg | Vd ([8]; male, ICR, oral, supplement, free concentrations in plasma, read-out: tvV (apparent volume of distribution)): 13.1 L/kg | clearance ([8]; male, ICR, plasma, oral, Table 1, free concentrations): 36.2 mL/min | IC50 (plasma TAG [9]; Homo sapiens, po, read-out: IC50 (free in vivo IC50, inhibition of exogenous TAG contribution to plasma), human OLTT, free plasma concentration): 8 nM | IC50 (plasma TAG [9]; read-out: IC50 (free in vivo IC50, inhibition of exogenous TAG contribution to plasma), human OLTT, free plasma concentration): 7.8 nM | IC50 [10]: 100 nM | IC50 [11]: 70 nM | IC50 (plasma TAG [12]; rat OLTT study, single time point data for plasma TAG and PK, read-out: in vivo IC50, previously published): 42 nM | effect on TAG excursion after OLTT (plasma TAG [12]; rats, exposure dependant): reduces the TAG excursion | IC50 [13]: 150 nM | side effects leading to stop of clinical development [14]: intolerable side effects | IIV V ([15]; in vivo): 11.7% | CL/F ([15]; male, Han-Wistar, oral, supplement, free concentrations in plasma, read-out: tvCl (apparent clearance) (converted)): 12.2 mL/min/kg | clearance ([15]; male, Han-Wistar, plasma, oral, Table 1, free concentrations): 12.2 mL/min | IC50 (plasma TAG [16]; Mus musculus, po, read-out: IC50 (free in vivo IC50, inhibition of exogenous TAG contribution to plasma), mouse OLTT, free plasma concentration): 81 nM | IC50 (plasma TAG [16]; read-out: IC50 (free in vivo IC50, inhibition of exogenous TAG contribution to plasma), mouse OLTT, free plasma concentration): 80 nM
